Measured values as given in patent US20230107642A1 (Erasca, Inc., priority 2020, published 2023).

Target: T1, Cys12 of the KRAS 4B G12C protein (Homo sapiens, UniProt P01116, G12C)
T1 construct: This protein contained 188 amino acids in total, including an N-terminal 6-Histidine tag; made in house; host or cells: E. coli BL21
Test: In vitro covalent adduct formation (CAF) assay, LC-MS intact mass
Type: binding
Conditions: for CAF (% after 1 hour): 10 μM compound; for % CAF 10 uM @ 60 min: 10 uM compound
In short: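 Percent covalent modification from intact-mass LC-MS, by relative free versus adducted protein (adducts within 1 Da of expected mass). Reaction: 10 μM compound with 5 μM E. coli-expressed, GDP-exchanged KRAS 4B G12C in TBS pH 7.4, 4% DMSO, 1 h at 22° C.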

Compound: C=CC(=O)N1[C@H](C)CN(c2nc(=O)n3c4c(c(-c5nc(N)c(F)cc5F)c(C(F)(F)F)cc24)SC[C@@H](OC)C3)C[C@@H]1C [Example 1242, (3S)-8-((3S,5R)-4-acryloyl-3,5-dimethylpiperazin-1-yl)-11-(6-amino-3,5-difluoropyridin-2-yl)-3-methoxy-10-(trifluoromethyl)-3,4-dihydro-2H,6H-[1,4]thiazepino[2,3,4-ij]quinazolin-6-one]
- CAF (% after 1 hour): 70%

Compound: C=CC(=O)N1[C@H](C)CN(c2nc(=O)n3c4c(c(-c5cc(Cl)c(F)cc5F)c(C(F)(F)F)cc24)SCC2(CC(=O)C2)C3)C[C@@H]1C [Example 1243, 8′-((3S,5R)-4-acryloyl-3,5-dimethylpiperazin-1-yl)-11′-(5-chloro-2,4-difluorophenyl)-10′-(trifluoromethyl)-2′H,4′H,6′H-spiro[cyclobutane-1,3′-[1,4]thiazepino[2,3,4-ij]quinazoline]-3,6′-dione]
- CAF (% after 1 hour): 92%

Compound: C=CC(=O)N1[C@H](C)CN(c2nc(=O)n3c4c(c(-c5cc(Cl)c(F)cc5F)c(C(F)(F)F)cc24)SC[C@@H]3CN2C[C@@H]3C[C@H]2CO3)C[C@@H]1C [Example 1302, (3S)-3-(((1S,4S)-2-oxa-5-azabicyclo[2.2.1]heptan-5-yl)methyl)-7-((3S,5R)-4-acryloyl-3,5-dimethylpiperazin-1-yl)-10-(5-chloro-2,4-difluorophenyl)-9-(trifluoromethyl)-2,3-dihydro-5H-[1,4]thiazino[2,3,4-ij]quinazolin-5-one]
- % CAF 10 uM @ 60 min: 78.9%

Compound: C=CC(=O)N1C[C@H](C)N(c2nc(=O)n3c4c(c(-c5cc(Cl)c(F)cc5F)c(C(F)(F)F)cc24)SC[C@@H]3CN2C[C@@H]3C[C@H]2CO3)C[C@H]1C [Example 1304]
- % CAF 10 uM @ 60 min: 87%

Compound: C=CC(=O)N1C[C@H](C)N(c2nc(=O)n3c4c(c(-c5cc(Cl)c(F)cc5F)c(C(F)(F)F)cc24)SC[C@@H]3CN2CCN(C3CC3)CC2)C[C@H]1C [Example 1307, (3S)-7-((2S,5R)-4-acryloyl-2,5-dimethylpiperazin-1-yl)-10-(5-chloro-2,4-difluorophenyl)-3-((4-cyclopropylpiperazin-1-yl)methyl)-9-(trifluoromethyl)-2,3-dihydro-5H-[1,4]thiazino[2,3,4-ij]quinazolin-5-one]
- % CAF 10 uM @ 60 min: 69.7%

Compound: [2H]C1([2H])N(C(=O)C=C)C([2H])([2H])C([2H])([2H])N(c2nc(=O)n3c4c(c(-c5cc(Cl)c(F)cc5F)c(C(F)(F)F)cc24)SCC2(COC2)C3)C1([2H])[2H] [Example 1309, 8′-(4-acryloylpiperazin-1-yl-2,2,3,3,5,5,6,6-d8)-11′-(5-chloro-2,4-difluorophenyl)-10′-(trifluoromethyl)-2′H,4′H,6′H-spiro[oxetane-3,3′-[1,4]thiazepino[2,3,4-ij]quinazolin]-6′-one]
- % CAF 10 uM @ 60 min: 97%

Compound: C=CC(=O)N1C[C@H](C)N(c2nc(=O)n3c4c(c(-c5cccc6cnn(C)c56)c(Cl)cc24)SC[C@@H]3CN2CCN(C3CC3)CC2)C[C@H]1C [Example 1310, (3S)-7-((2S,5R)-4-acryloyl-2,5-dimethylpiperazin-1-yl)-9-chloro-3-((4-cyclopropylpiperazin-1-yl)methyl)-10-(1-methyl-1H-indazol-7-yl)-2,3-dihydro-5H-[1,4]thiazino[2,3,4-ij]quinazolin-5-one]
- % CAF 10 uM @ 60 min: 95%

Compound: C=CC(=O)N1CCN(c2nc(=O)n3c4c(c(-c5cc(Cl)c(F)cc5F)c(C(F)(F)F)cc24)SC[C@@H]3CN2C[C@@H]3C[C@H]2CO3)CC1 [Example 1311]
- % CAF 10 uM @ 60 min: 95.4%

Compound: C=CC(=O)N1[C@H](C)CN(c2nc(=O)n3c4c(c(-c5ccc(F)c(Cl)c5)c(C(F)(F)F)cc24)SC[C@@H]3COC)C[C@@H]1C [Example 1316, (S)-7-((3S,5R)-4-acryloyl-3,5-dimethylpiperazin-1-yl)-10-(3-chloro-4-fluorophenyl)-3-(methoxymethyl)-9-(trifluoromethyl)-2,3-dihydro-5H-[1,4]thiazino[2,3,4-ij]quinazolin-5-one]
- % CAF 10 uM @ 60 min: 96%
